Entries after “also recorded” stand apart in the source; their conditions may differ.
Columns and labels:
[1] = target: T1, BRD4 (Homo sapiens, UniProt O60885); assay: Summary of E3 ligase directed degradation of BRD4, estimated from Western Blot or WES (Tables 1-6); type: cell-based; parameters: endogenous in cells; host or cells: HeLa, MCF7 or HCT116; conditions: for Degradation of BRD4, combination with MDM2 ligand [drawing 463] / Degradation of BRD4, combination with MDM2 ligand [drawing 464]: Table 5; for Degradation of BRD4, combination with MDM2 ligand [drawing 463]: aryl-boronic acid-containing MDM2 ligand drawn as drawing 463 (apparently 8310); for Degradation of BRD4, combination with MDM2 ligand [drawing 464]: aryl-boronic acid-containing MDM2 ligand drawn as drawing 464 (apparently 8312)
Method in brief: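 HeLa, MCF7 or HCT116 cells treated 24 h with compounds in DMSO, lysed in RIPA buffer; BRD4 levels read by Western blot (ECL detection) or capillary WES with HRP detection. Check mark denotes 30% to 70% or higher protein degradation.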

[2] = target: T1, BRD4; assay: BRD protein family degradation in HCT116 cells with MDM2 ligands, Western blot: BRD4; type: cell-based; parameters: endogenous in cells; host or cells: HeLa, MCF7 or HCT116; conditions: 24 h, with MDM2 ligands 8310 / 8312
Method: All cell lines were purchased from ATCC or DSMZ and grown at 37° C. with 5% C02. Human HeLa cells were cultured in complete growth medium (Dulbecco's modified Eagle's medium (DMEM) supplemented with 10% FBS); MCF7 cells were cultured in complete growth medium (Dulbecco's modified Eagle's medium (DMEM) supplemented with 10% FBS and 0.01 mg/ml human recombinant insulin (Sigma Aldrich); Namalwa and MOLM-13 cells were cultured in complete growth medium (RPMI 1640 medium supplemented with 10% FBS); MV-4-11 were cultured in complete growth medium (Iscove's Modified Dulbecco's medium, supplemented with 10% FBS); HCT116 cells were cultured in complete growth medium (McCoy's 5a Medium supplemented with 10% FBS). For cellular degradation of BRD4 studies, cells were seeded in a 12-well plate at 70-80% confluency, allowed to attach overnight, and incubated with the indicated compounds for the indicated time. […]
HeLa, MCF7, or HCT116 cells (2.5-3×10^6) were treated for 24 hours with the indicated compounds solubilized in DMSO. […] The total protein concentrations were determined by Bradford Protein Assay and 10-20 μg of protein was loaded onto 4-15% Tris-Glycine gradient gels (Biorad). […] Signal was detected with ECL Western Blotting Substrate (Pierce) and X-ray film processed with a Konica SRX-101 X-ray film processor or captured by Bio-Rad's Chemidoc Imaging system. […]

[3] = test system: MV-4-11 cells; assay: CellTiter-Glo cell viability, MV-4-11 cells; type: cell-based; conditions: 1 nM-100 μM, cotreated 1:1 with CRBN ligand 8049
Method: All cell lines were purchased from ATCC or DSMZ and grown at 37° C. with 5% C02. Human HeLa cells were cultured in complete growth medium (Dulbecco's modified Eagle's medium (DMEM) supplemented with 10% FBS); MCF7 cells were cultured in complete growth medium (Dulbecco's modified Eagle's medium (DMEM) supplemented with 10% FBS and 0.01 mg/ml human recombinant insulin (Sigma Aldrich); Namalwa and MOLM-13 cells were cultured in complete growth medium (RPMI 1640 medium supplemented with 10% FBS); MV-4-11 were cultured in complete growth medium (Iscove's Modified Dulbecco's medium, supplemented with 10% FBS); HCT116 cells were cultured in complete growth medium (McCoy's 5a Medium supplemented with 10% FBS). For cellular degradation of BRD4 studies, cells were seeded in a 12-well plate at 70-80% confluency, allowed to attach overnight, and incubated with the indicated compounds for the indicated time. When indicated, a 15-minute pretreatment with 10 μM pomalidomide, 10 μM VHL298, 10 μM Nutlin3a, 1 μM MG-132 or 1 μM Carfilzomib was performed before the addition of CURE-PROs. For washout studies, after CURE-PRO treatment, media was aspirated and incubated with complete medium for the indicated time before lysis.
CellTiter-Glo® 2.0 Cell Viability Assay (Promega) was carried out following the manufacturer's recommendations. Cells were seeded at a density of 1000 cells/well in a white 96 well plates (Corning, #3917) in a total volume of 100 μl with respective monomers, combinations of BRD ligands together with E3 ligase ligands or vehicle control treatment. After a 72 h incubation, 100 ul of the CellTiter-Glo® substrate was added per well and luminescence was read on a Spectramax M5 (Molecular Devices). Dose-response curves were generated using Graphpad Prism software.
MV-4-11 cells (5×104) were treated for 24 hours with the sample compounds solubilized in DMSO. The compounds were added at 1 nM-100 μM each. Cellular viability was determined using the CellTiter-Glo® Luminescent Cell Viability Assay (Promega) described above. FIGS. 19-22 depict the CURE-PRO-mediated loss of cellular viability for BRD monomers (JQ1 derivatives comprising of catechol linkers), and CRBN ligand, 8049 (pomalidomide derivatives comprising boronic acid linkers) combined in a 1:1 ratio.
MV-4-11 cells (1×104) were treated for 72 hours with the compounds solubilized in DMSO. Compounds were added at 10 nM-100 μM each. Cellular viability was determined using the CellTiter-Glo® Luminescent Cell Viability Assay (Promega) described above. FIGS. 47-54 depict the CURE-PRO-mediated loss of cellular viability for BRD monomers (JQ1 derivatives comprising of boronic acid linkers), and CRBN ligands, 8046, 8047, and 8066 (pomalidomide derivatives comprising diol linkers) combined in a 1:1 ratio.

[4] = test system: SLC19A1; assay: Suppression of the c-MYC downstream target gene SLC19A1, RT-PCR in HeLa cells; type: cell-based, Human; conditions: 24 h, 10 μM each
Method: The suppression of the expression of the downstream c-MYC target, SLC19A1, was measured by RT-PCR using Power SYBR® Green Cells-to-Ct™ Kit (Life Technologies). Adherent cells were plated on 96 well plates at 5,000 cells per well were treated for 24 h with monomer compounds and compounds capable of reversible interactions (1 nM-100 μM). Cells were subsequently washed in ice-cold PBS processed according to the manufacturer's instructions. Quantitative real-time PCR was performed using a ViiA™ 7 Real-time PCR System (Applied Biosystems, Foster City, CA, USA). GAPDH and ACTB served as internal controls. The primers used were (5′-3′): GAPDH-F: AGCCACATCGCTCAGACAC (SEQ ID NO:9), GAPDH-R: GCCCAATACGACCAAATCC (SEQ ID NO:10), ACTB-F: CCAACCGCGAGAAGATGA (SEQ ID NO:11), ACTB-R: […] (SEQ ID NO:12), SLC19A1-F: […] (SEQ ID NO:13), SLC19A1-R: […] (SEQ ID NO:14).
HeLa cells (1×104) were treated for 24 hours in 96 well plates with the compounds solubilized in DMSO. Compounds were added at 10 μM each and RNA expression measured by the Cells-to Ct method described above (Thermofisher).

CCNC(=O)C[C@@H]1N=C(c2ccc(Cl)cc2)c2cc(OCCNC(=O)c3cccc(O)c3O)ccc2-n2c(C)nnc21 [BRD-N25]
Degradation of BRD4, combination with MDM2 ligand [drawing 463] [1]: ✓ (A black check mark indicates efficacy of 30% to 70% or higher protein degradation)
Degradation of BRD4, combination with MDM2 ligand [drawing 464] [1]: ✓ (A black check mark indicates efficacy of 30% to 70% or higher protein degradation)
selectivity of degradation within the BRD protein family [2]: some selectivity for BRD3 and BRD4 over BRD2 for 8310
toxicity / loss of cellular viability (CellTiter-Glo) [3]: a concentration-dependent loss in cellular viability was observed; also recorded: increased toxicity
suppression of SLC19A1 expression ([4]; with MDM2 ligand 8310): a rightward shift in the curve and an increase in the Ct values
suppression of SLC19A1 expression ([4]; with MDM2 ligand 8312): a rightward shift in the curve and an increase in the Ct values

CCNC(=O)C[C@@H]1N=C(c2ccc(Cl)cc2)c2cc(OCCOCCNC(=O)c3cccc(O)c3O)ccc2-n2c(C)nnc21 [BRD-N39, N-(2-(2-(((4S)-6-(4-chlorophenyl)-4-(2-(ethylamino)-2-oxoethyl)-1-methyl-4H-benzo[f][1,2,4]triazolo[4,3-a][1,4]diazepin-8-yl)oxy)ethoxy)ethyl)-2,3-dihydroxybenzamide]
Degradation of BRD4, combination with CRBN ligand [drawing 457] ([1]; Table 4, aryl-boronic acid-containing CRBN ligand drawn as drawing 457 (by the text apparently 8048)): ✓ (A black check mark indicates efficacy of 30% to 70% or higher protein degradation)
Degradation of BRD4, combination with MDM2 ligand [drawing 463] [1]: ✓ (A black check mark indicates efficacy of 30% to 70% or higher protein degradation)
Degradation of BRD4, combination with MDM2 ligand [drawing 464] [1]: ✓ (A black check mark indicates efficacy of 30% to 70% or higher protein degradation)
selectivity of degradation within the BRD protein family [2]: some selectivity for BRD4 over BRD2 and BRD3
suppression of SLC19A1 expression ([4]; with MDM2 ligand 8310): a rightward shift in the curve and an increase in the Ct values
suppression of SLC19A1 expression ([4]; with MDM2 ligand 8312): Complete suppression of SLC19A1 was evident
